Each structure is given as a SMILES string. Where “and” joins values, the source holds several entries; their conditions need not be identical. Equal values may be shown once. Read-outs that look alike come from different tables or passages of the source.

In assay [1] the test system is CCI model of neuropathic pain (mechanoallodynia) in mice. The assay is described as follows: Mouse CCI model of neuropathic pain. The assay is classed as in vivo. The note with it: 3 μmol/kg p.o.; for duration of action in vivo (in words) / reversal of mechanoallodynia at 1 h (in words): CCI mice; for reversal of mechanoallodynia at 1 h (in words): 1 h after drug treatment.

Assay [2] shares this test system. The note with it: 3 μmol/kg p.o., ref Tosh et al.[8], cited from earlier work.
The next assay addresses T1, hA3AR (Homo sapiens, UniProt P0DMS8).
T1 sequence (P0DMS8 1-318): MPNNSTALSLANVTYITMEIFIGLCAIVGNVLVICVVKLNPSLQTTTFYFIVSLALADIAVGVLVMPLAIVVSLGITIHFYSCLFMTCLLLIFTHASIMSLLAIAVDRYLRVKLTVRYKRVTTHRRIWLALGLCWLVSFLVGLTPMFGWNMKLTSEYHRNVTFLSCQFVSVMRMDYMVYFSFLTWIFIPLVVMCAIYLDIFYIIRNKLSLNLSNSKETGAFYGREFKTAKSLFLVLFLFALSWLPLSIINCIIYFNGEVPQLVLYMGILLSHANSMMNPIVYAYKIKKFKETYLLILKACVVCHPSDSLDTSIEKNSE
The assay is described as follows: Radioligand binding at hA3AR.

As for `CNC(=O)[C@@]12C[C@@H]1[C@@H](n1cnc3c(NCc4cccc(Cl)c4)nc(-n4cc(-c5ccc(Cl)s5)nn4)nc31)[C@H](O)[C@@H]2O` [Compound 17], the “duration of action in vivo (in words)” value in assay [1] is on record as “nearly full protection up to 4 h”. The “Effect at 3h (% ± SEM), pain protection” value in assay [1] (day 7 after CCI, mice, 3 h after administration) is above 90%. `CNC(=O)[C@@]12C[C@@H]1[C@@H](n1cnc3c(NC)nc(-n4cc(-c5ccc(Br)s5)nn4)nc31)[C@H](O)[C@@H]2O` [Compound 19]: the “reversal of mechanoallodynia at 1 h (in words)” value (“reversal of mechanoallodynia” for short) in assay [1] was “nearly completely reversed”. For `CNC(=O)[C@@]12C[C@@H]1[C@@H](n1cnc3c(NCc4cccc(Cl)c4)nc(C#Cc4ccc(F)c(F)c4)nc31)[C@H](O)[C@@H]2O` [Compound 1], in assay [2], the “Effect at 3h (% ± SEM), pain protection” value was 24% and 23.7 ± 10.8%; the “Max. effect Emax (% ± SEM), reversal of reduction in PWT of ipsilateral hind paw” value is reported as 100 ± 0.0%.

For the compound `CNC(=O)[C@@]12C[C@@H]1[C@@H](n1cnc3c(NCCc4ccccc4)nc(-n4cc(-c5ccc(Cl)s5)nn4)nc31)[C@H](O)[C@@H]2O` [Compound 18], the “duration of action in vivo (in words)” value in assay [1] was “prolonged in activity”. Regarding `CNC(=O)[C@@]12C[C@@H]1[C@@H](n1cnc3c(NC)nc(-n4cc(-c5cnn(C)c5)nn4)nc31)[C@H](O)[C@@H]2O` [Compound 11], the “reversal of mechanoallodynia” value in assay [1] is “nearly completely reversed”.

In the case of `CCNc1nc(-n2cc(-c3ccc(Cl)s3)nn2)nc2c1ncn2[C@H]1[C@H](O)[C@H](O)[C@]2(C(=O)NC)C[C@H]12` [Compound 15], the “reversal of mechanoallodynia” value in assay [1] was “nearly completely reversed”. Take `CNC(=O)[C@@]12C[C@@H]1[C@@H](n1cnc3c(NC)nc(-n4cc(-c5ncccn5)nn4)nc31)[C@H](O)[C@@H]2O` [Compound 9]: at hA3AR, the “ligand efficiency with respect to A3AR affinity” value came to 0.27. Also, the “reversal of mechanoallodynia” value in assay [1] is listed as “nearly completely reversed”.

On to `CNC(=O)[C@@]12C[C@@H]1[C@@H](n1cnc3c(NC)nc(C#Cc4ccc(Cl)s4)nc31)[C@H](O)[C@@H]2O` [Compound 2], for which, in assay [2], the “Effect at 3h (% ± SEM), pain protection” value is 83% and 82.8 ± 11.2%; the “Max. effect Emax (% ± SEM), reversal of reduction in PWT of ipsilateral hind paw” value was 93.3 ± 6.7%. In the case of `CNC(=O)[C@@]12C[C@@H]1[C@@H](n1cnc3c(NC4CCC4)nc(-n4cc(-c5ccc(Cl)s5)nn4)nc31)[C@H](O)[C@@H]2O` [Compound 16], in assay [1], the “duration of action in vivo (in words)” value is reported as “prolonged in activity”.

The record behind these values is paper PMC4517612 (MedChemComm, 2015).
